Assay results taken from the supplement of paper PMC11208160.

Assay: recombinant barcode read abundance after kanamycin selection (control-corrected) (log10(CPM+1)); higher = more efficient recombination; sequences stand for … in AGTGCAGAGAAAATCGGCCAGTTTTCTCTGCCTGCAGTCCGCATGCCGT…ATTTATGCAGCGGACTGCCTTTCTCCCAAAGTGATAAACCGGACAGTATCATGGACCGGTTTTCCCGGTAATCCGTATTTGCAAGGTTGGTTTCACT; site = the 11-nt target
How it was run: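 Pooled oligos, each joining a target to an IS621 bridge RNA target-binding loop, were cloned and co-electroporated with a donor plasmid into E. coli. Selective plates carried chloramphenicol/ampicillin/kanamycin and 0.1 mM IPTG, while chloramphenicol/ampicillin LB agar served as control, with two replicates of each. Recombination efficiency rests on averaged, control-corrected counts per million of barcodes at recombinant junctions, shown as log10(CPM+1).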
For “TAAGAATGGTGGGTTCTAACCTGTTGCCTCC [TAAGAATCTAG_LTGcore_GG_RTGcore_GG] (site TAAGAATCTAG) (LTG core: GG, RTG core: GG)”, the “recombinant barcode read abundance (log10)” value was 0.113.
For “GGTGCCCCTTGGGTTCTAACCTGTTGCCGCC [GGTGCCCCTCG_LTGcore_CT_RTGcore_GG] (site GGTGCCCCTCG) (LTG core: CT, RTG core: GG)”, the “recombinant barcode read abundance (log10)” value was 0.0795.
In the case of “GGTGCCCAGTGGGTTCTAACCTGTTGCCGCT [GGTGCCCCTCG_LTGcore_AG_RTGcore_AG] (site GGTGCCCCTCG) (LTG core: AG, RTG core: AG)”, the “recombinant barcode read abundance (log10)” value is reported as 0.102.
With “GAGTCCAAGTGGGTTCTAACCTGTTGCGTCT [GAGTCCACTAC_LTGcore_AG_RTGcore_AG] (site GAGTCCACTAC) (LTG core: AG, RTG core: AG)” the “recombinant barcode read abundance (log10)” value was 0.0337.
For “TGTATTCCTTGGGTTCTAACCTGTTGCCTAG [TGTATTCCTAG_LTGcore_CT_RTGcore_CT] (site TGTATTCCTAG) (LTG core: CT, RTG core: CT)”, the “recombinant barcode read abundance (log10)” value was 0.129.
With “GGCTCCCTATGGGTTCTAACCTGTTGCGGTA [GGCTCCCCTCC_LTGcore_TA_RTGcore_TA] (site GGCTCCCCTCC) (LTG core: TA, RTG core: TA)” the “recombinant barcode read abundance (log10)” value was 0.201.
With “GCGGGACGATGGGTTCTAACCTGTTGCCTAG [GCGGGACCTAG_LTGcore_GA_RTGcore_CT] (site GCGGGACCTAG) (LTG core: GA, RTG core: CT)” the “recombinant barcode read abundance (log10)” value was 0.171.
In the case of “GAGTCCTAATGGGTTCTAACCTGTTGCCTTT [GAGTCCTCTAG_LTGcore_AA_RTGcore_AA] (site GAGTCCTCTAG) (LTG core: AA, RTG core: AA)”, the “recombinant barcode read abundance (log10)” value is reported as 0.11.
With “ACGGGACGCTGGGTTCTAACCTGTTGCAGGC [ACGGGACCTCT_LTGcore_GC_RTGcore_GC] (site ACGGGACCTCT) (LTG core: GC, RTG core: GC)” the “recombinant barcode read abundance (log10)” value was 0.151.
For “GGCTCCCGATGGGTTCTAACCTGTTGCGGTC [GGCTCCCCTCC_LTGcore_GA_RTGcore_GA] (site GGCTCCCCTCC) (LTG core: GA, RTG core: GA)”, the “recombinant barcode read abundance (log10)” value was 0.109.
For “AGGCGGTAATGGGTTCTAACCTGTTGCTTTT [AGGCGGTCTAA_LTGcore_AA_RTGcore_AA] (site AGGCGGTCTAA) (LTG core: AA, RTG core: AA)”, the “recombinant barcode read abundance (log10)” value was 0.0996.
With “TTATAAACTTGGGTTCTAACCTGTTGCCTGT [TTATAAACTAG_LTGcore_CT_RTGcore_AC] (site TTATAAACTAG) (LTG core: CT, RTG core: AC)” the “recombinant barcode read abundance (log10)” value was 0.0449.
For “CATATTACTTGGGTTCTAACCTGTTGCCTCC [CATATTACTAG_LTGcore_CT_RTGcore_GG] (site CATATTACTAG) (LTG core: CT, RTG core: GG)”, the “recombinant barcode read abundance (log10)” value was 0.2.
In the case of “TGATACCCTTGGGTTCTAACCTGTTGCGTTA [TGATACCCTAC_LTGcore_CT_RTGcore_TA] (site TGATACCCTAC) (LTG core: CT, RTG core: TA)”, the “recombinant barcode read abundance (log10)” value is reported as 0.0153.
With “AAACAGTTCTGGGTTCTAACCTGTTGCCTGA [AAACAGTCTAG_LTGcore_TC_RTGcore_TC] (site AAACAGTCTAG) (LTG core: TC, RTG core: TC)” the “recombinant barcode read abundance (log10)” value was 0.262.
With “TCTACCCGCTGGGTTCTAACCTGTTGCTGGC [TCTACCCCTCA_LTGcore_GC_RTGcore_GC] (site TCTACCCCTCA) (LTG core: GC, RTG core: GC)” the “recombinant barcode read abundance (log10)” value was 0.124.
In the case of “TTATAAACGTGGGTTCTAACCTGTTGCCTCG [TTATAAACTAG_LTGcore_CG_RTGcore_CG] (site TTATAAACTAG) (LTG core: CG, RTG core: CG)”, the “recombinant barcode read abundance (log10)” value is reported as 0.193.
With “AGGCCTCCATGGGTTCTAACCTGTTGCCTTG [AGGCCTCCTAG_LTGcore_CA_RTGcore_CA] (site AGGCCTCCTAG) (LTG core: CA, RTG core: CA)” the “recombinant barcode read abundance (log10)” value was 0.128.
In the case of “TTATAAACTTGGGTTCTAACCTGTTGCCTCA [TTATAAACTAG_LTGcore_CT_RTGcore_TG] (site TTATAAACTAG) (LTG core: CT, RTG core: TG)”, the “recombinant barcode read abundance (log10)” value is reported as 0.402.
For “TGATACCCTTGGGTTCTAACCTGTTGCGTAC [TGATACCCTAC_LTGcore_CT_RTGcore_GT] (site TGATACCCTAC) (LTG core: CT, RTG core: GT)”, the “recombinant barcode read abundance (log10)” value was 0.08.
For “AGGCCTCCTTGGGTTCTAACCTGTTGCCTTC [AGGCCTCCTAG_LTGcore_CT_RTGcore_GA] (site AGGCCTCCTAG) (LTG core: CT, RTG core: GA)”, the “recombinant barcode read abundance (log10)” value was 0.109.
With “TGTATTCCATGGGTTCTAACCTGTTGCCTAG [TGTATTCCTAG_LTGcore_CA_RTGcore_CT] (site TGTATTCCTAG) (LTG core: CA, RTG core: CT)” the “recombinant barcode read abundance (log10)” value was 0.0466.
For “GCGGGACCTTGGGTTCTAACCTGTTGCCTAT [GCGGGACCTAG_LTGcore_CT_RTGcore_AT] (site GCGGGACCTAG) (LTG core: CT, RTG core: AT)”, the “recombinant barcode read abundance (log10)” value was 1.68.
With “GCGGGACCTTGGGTTCTAACCTGTTGCCTTG [GCGGGACCTAG_LTGcore_CT_RTGcore_CA] (site GCGGGACCTAG) (LTG core: CT, RTG core: CA)” the “recombinant barcode read abundance (log10)” value was 1.08.
In the case of “AGGCGGTTGTGGGTTCTAACCTGTTGCTTAG [AGGCGGTCTAA_LTGcore_TG_RTGcore_CT] (site AGGCGGTCTAA) (LTG core: TG, RTG core: CT)”, the “recombinant barcode read abundance (log10)” value is reported as 0.113.
For “TGTATTCAGTGGGTTCTAACCTGTTGCCTCT [TGTATTCCTAG_LTGcore_AG_RTGcore_AG] (site TGTATTCCTAG) (LTG core: AG, RTG core: AG)”, the “recombinant barcode read abundance (log10)” value was 0.00767.
For “AAACACAAGTGGGTTCTAACCTGTTGCCTAG [AAACACACTAG_LTGcore_AG_RTGcore_CT] (site AAACACACTAG) (LTG core: AG, RTG core: CT)”, the “recombinant barcode read abundance (log10)” value was 0.0385.
In the case of “GAGCCCAGTTGGGTTCTAACCTGTTGCCTAG [GAGCCCACTAG_LTGcore_GT_RTGcore_CT] (site GAGCCCACTAG) (LTG core: GT, RTG core: CT)”, the “recombinant barcode read abundance (log10)” value is reported as 0.0941.
For “GGGCGTGGCTGGGTTCTAACCTGTTGCCTAG [GGGCGTGCTAG_LTGcore_GC_RTGcore_CT] (site GGGCGTGCTAG) (LTG core: GC, RTG core: CT)”, the “recombinant barcode read abundance (log10)” value was 0.276.
In the case of “CATATTAGATGGGTTCTAACCTGTTGCCTAG [CATATTACTAG_LTGcore_GA_RTGcore_CT] (site CATATTACTAG) (LTG core: GA, RTG core: CT)”, the “recombinant barcode read abundance (log10)” value is reported as 0.239.
With “GCGCGACTGTGGGTTCTAACCTGTTGCTTAG [GCGCGACCTAA_LTGcore_TG_RTGcore_CT] (site GCGCGACCTAA) (LTG core: TG, RTG core: CT)” the “recombinant barcode read abundance (log10)” value was 0.0192.
In the case of “GGTGCCCTTTGGGTTCTAACCTGTTGCCGAA [GGTGCCCCTCG_LTGcore_TT_RTGcore_TT] (site GGTGCCCCTCG) (LTG core: TT, RTG core: TT)”, the “recombinant barcode read abundance (log10)” value is reported as 0.622.
In the case of “CGAGCCCCTTGGGTTCTAACCTGTTGCTGAT [CGAGCCCCTCA_LTGcore_CT_RTGcore_AT] (site CGAGCCCCTCA) (LTG core: CT, RTG core: AT)”, the “recombinant barcode read abundance (log10)” value is reported as 0.29.
In the case of “GGGAGCCCTTGGGTTCTAACCTGTTGCTGCT [GGGAGCCCTCA_LTGcore_CT_RTGcore_AG] (site GGGAGCCCTCA) (LTG core: CT, RTG core: AG)”, the “recombinant barcode read abundance (log10)” value is reported as 0.652.
In the case of “GAGCCCACTTGGGTTCTAACCTGTTGCCTAT [GAGCCCACTAG_LTGcore_CT_RTGcore_AT] (site GAGCCCACTAG) (LTG core: CT, RTG core: AT)”, the “recombinant barcode read abundance (log10)” value is reported as 0.41.
For “GGGCGTGCTTGGGTTCTAACCTGTTGCCTTA [GGGCGTGCTAG_LTGcore_CT_RTGcore_TA] (site GGGCGTGCTAG) (LTG core: CT, RTG core: TA)”, the “recombinant barcode read abundance (log10)” value was 0.139.
In the case of “TAAGAATGCTGGGTTCTAACCTGTTGCCTGC [TAAGAATCTAG_LTGcore_GC_RTGcore_GC] (site TAAGAATCTAG) (LTG core: GC, RTG core: GC)”, the “recombinant barcode read abundance (log10)” value is reported as 0.0564.
With “GGCTCCCACTGGGTTCTAACCTGTTGCGGAG [GGCTCCCCTCC_LTGcore_AC_RTGcore_CT] (site GGCTCCCCTCC) (LTG core: AC, RTG core: CT)” the “recombinant barcode read abundance (log10)” value was 0.149.
For “AAACAGTCTTGGGTTCTAACCTGTTGCCTGA [AAACAGTCTAG_LTGcore_CT_RTGcore_TC] (site AAACAGTCTAG) (LTG core: CT, RTG core: TC)”, the “recombinant barcode read abundance (log10)” value was 0.883.
In the case of “GGCTCCCAATGGGTTCTAACCTGTTGCGGAG [GGCTCCCCTCC_LTGcore_AA_RTGcore_CT] (site GGCTCCCCTCC) (LTG core: AA, RTG core: CT)”, the “recombinant barcode read abundance (log10)” value is reported as 0.
For “GGGCGGAACTGGGTTCTAACCTGTTGCGGGT [GGGCGGACTCC_LTGcore_AC_RTGcore_AC] (site GGGCGGACTCC) (LTG core: AC, RTG core: AC)”, the “recombinant barcode read abundance (log10)” value was 0.3.
In the case of “GGGAGCCCTTGGGTTCTAACCTGTTGCTGGC [GGGAGCCCTCA_LTGcore_CT_RTGcore_GC] (site GGGAGCCCTCA) (LTG core: CT, RTG core: GC)”, the “recombinant barcode read abundance (log10)” value is reported as 0.0756.
With “TAAGAATCTTGGGTTCTAACCTGTTGCCTAC [TAAGAATCTAG_LTGcore_CT_RTGcore_GT] (site TAAGAATCTAG) (LTG core: CT, RTG core: GT)” the “recombinant barcode read abundance (log10)” value was 0.116.
With “TCGCGACTTTGGGTTCTAACCTGTTGCCGAG [TCGCGACCTCG_LTGcore_TT_RTGcore_CT] (site TCGCGACCTCG) (LTG core: TT, RTG core: CT)” the “recombinant barcode read abundance (log10)” value was 0.282.
For “GCGGGACCTTGGGTTCTAACCTGTTGCCTCG [GCGGGACCTAG_LTGcore_CT_RTGcore_CG] (site GCGGGACCTAG) (LTG core: CT, RTG core: CG)”, the “recombinant barcode read abundance (log10)” value was 1.7.
